This passage reports IC50 results from patent US20070027150A1 (priority 2005, published 2007).

pIC50: −log10 of the molar value. Some results are limits rather than exact numbers.

In one assay the target is His-tagged N-terminal ATP binding domain (amino acid residues 9-236) of HSP90α (Homo sapiens, UniProt P07900). As to the kind of experiment: HSP90 inhibitor binding potency: TRF competition binding assay. To be noted: Table I; read-out: Hsp90 IC50 Range. On the procedure:
HSP90 Inhibitor Binding Potency: TRF Binding Assay
In this example, the binding potency of HSP90 inhibitors as measured by a TRF binding assay is described.
TRF competition binding assays were performed to determine the binding potency (IC50 values) of HSP90 inhibitors. Purified His-tagged N-terminal ATP binding domain (amino acid residues 9-236) of HSP90α (HSP90α GeneID: 3320; mRNA Sequence NM_005348) was incubated for two hours at room temperature in binding buffer (50 mM HEPES, 6 mM MgCl2, 20 mM KCl and 0.1% BSA) with biotinylated radicicol and progressively higher concentrations of the competing compounds. A fraction of the mixture was transferred to capture plates (coated with streptavidin) and incubated for one hour at room temperature. After washing with DELFIA wash buffer, europium-labeled anti-his antibody was added and incubated for two hours at room temperature, followed by washing with DELFIA buffer. DELFIA enhancement solution was then added. After gentle shaking for 10 minutes, the plates were read in VICTOR for europium counts.
Consider `Cc1nc(N)nc2c1C(=O)CC(c1ccccc1-c1cccc(F)c1)C2` (stereo not shown) [Compound 52, 2-amino-7-(3′-fluoro-1,1′-biphenyl-2-yl)-4-methyl-7,8-dihydroquinazolin-5(6H)-one], for which the pIC50 – broadly, −log10 of the IC50, conventionally taken in molar units – is more than 6.00.
Consider `Cc1nc(N)nc2c1C(=O)CC(c1ccccc1Oc1ccccn1)C2` (stereo not shown) [Compound 141, 2-amino-4-methyl-7-[2-(pyridin-2-yloxy)phenyl]-7,8-dihydroquinazolin-5(6H)-one], for which the pIC50 was more than 6.00.
Take `Cc1ccccc1Oc1ccccc1C1CC(=O)c2c(C)nc(N)nc2C1` (stereo not shown) [Compound 134, 2-amino-4-methyl-7-[2-(2-methylphenoxy)phenyl]-7,8-dihydroquinazolin-5(6H)-one]: the negative-log IC50 (pIC50) is more than 6.00.
Still for that read-out and setting: in the case of `Cc1nc(N)nc2c1C(=O)CC(c1ccccc1-c1cccc(NS(C)(=O)=O)c1)C2` (stereo not shown) [Compound 114, N-[2′-(2-amino-4-methyl-5-oxo-5,6,7,8-tetrahydroquinazolin-7-yl)-1,1′-biphenyl-3-yl]methanesulfonamide] it was 5.00 to 6.00; in that of `Cc1nc(N)nc2c1C(=O)CC(c1nn(C)cc1C1CCCCC1)C2` (stereo not shown) [Compound 47, 2-amino-7-(4-cyclohexyl-1-methyl-1H-pyrazol-3-yl)-4-methyl-7,8-dihydro-6H-quinazolin-5-one], more than 6.00; in that of `Cc1nc(N)nc2c1C(=O)CC(c1cnccc1Oc1ccccc1)C2` (stereo not shown) [Compound 24, 2-Amino-4-methyl-7-(4-phenoxy-pyridin-3-yl)-7,8-dihydro-6H-quinazolin-5-one], more than 6.00.
For the compound `CC(=O)Nc1cccc(-c2ccccc2C2CC(=O)c3c(C)nc(N)nc3C2)c1` (stereo not shown) [Compound 102, N-[2′-(2-amino-4-methyl-5-oxo-5,6,7,8-tetrahydroquinazolin-7-yl)-1,1′-biphenyl-3-yl]acetamide], the negative-log IC50 (pIC50) was 5.00 to 6.00.
Still for that read-out and setting: in the case of `CCOc1cccc(-c2ccccc2C2CC(=O)c3c(C)nc(N)nc3C2)n1` (stereo not shown) [Compound 94, 2-amino-7-[2-(6-ethoxy-pyridin-2-yl)-phenyl]-4-methyl-7,8-dihydro-6H-quinazolin-5-one] it was 5.00 to 6.00; in that of `Cc1nc(N)nc2c1C(=O)CC(c1ccccc1-c1ccncc1)C2` (stereo not shown) [Compound 27, 2-amino-4-methyl-7-(2-pyridin-4-ylphenyl)-7,8-dihydroquinazolin-5(6H)-one], 5.00 to 6.00.
In the case of `Cc1nc(N)nc2c1C(=O)CC(c1c(Br)cnn1C)C2` (stereo not shown) [Compound 10, 2-amino-7-(4-bromo-2-methyl-2H-pyrazol-3-yl)-4-methyl-7,8-dihydro-6H-quinazolin-5-one], the pIC50 is less than 5.00.
Still for that read-out and setting: in the case of `Cc1nc(N)nc2c1C(=O)CC(c1ccccc1-c1ccc(F)cn1)C2` (stereo not shown) [Compound 123, 2-amino-7-[2-(5-fluoropyridin-2-yl)phenyl]-4-methyl-7,8-dihydroquinazolin-5(6H)-one] it was more than 6.00.
Still for that read-out and setting: the value for `Cc1nc(N)nc2c1C(=O)CC(c1ccccc1-c1cccc(F)n1)C2` (stereo not shown) [Compound 122, 2-amino-7-[2-(6-fluoropyridin-2-yl)phenyl]-4-methyl-7,8-dihydroquinazolin-5(6H)-one] was more than 6.00; that for `Cc1nc(N)nc2c1C(=O)CC(c1cccc(-c3cccnc3)c1)C2` (stereo not shown) [Compound 29, 2-amino-4-methyl-7-(3-pyridin-3-ylphenyl)-7,8-dihydroquinazolin-5(6H)-one] was less than 5.00; that for `Cc1nc(N)nc2c1C(=O)CC(c1ccccc1Oc1ccnc(Cl)c1)C2` (stereo not shown) [Compound 147, 2-amino-7-{2-[(2-chloropyridin-4-yl)oxy]phenyl}-4-methyl-7,8-dihydroquinazolin-5(6H)-one] was 5.00 to 6.00.
Still for that read-out and setting: the value for `Cc1nc(N)nc2c1C(=O)CC(c1ccccc1-c1cccc(C(N)=O)c1)C2` (stereo not shown) [Compound 91, 2′-(2-amino-4-methyl-5-oxo-5,6,7,8-tetrahydroquinazolin-7-yl)-1,1′-biphenyl-3-carboxamide] was 5.00 to 6.00; that for `Cc1nc(N)nc2c1C(=O)CC(C(C)C)C2` (stereo not shown) [Compound 1, 2-amino-7-isopropyl-4-methyl-7,8-dihydroquinazolin-5(6H)-one] was less than 5.00; that for `Cc1nc(N)nc2c1C(=O)CC(c1ccccc1-c1cccnc1F)C2` (stereo not shown) [Compound 55, 2-amino-7-[2-(2-fluoropyridin-3-yl)phenyl]-4-methyl-7,8-dihydroquinazolin-5(6H)-one] was more than 6.00.

The same assay, now with this note: Table II; read-out: Hsp90 IC50 Range.
As for `COc1nc(-c2cc(F)ccc2C2CC(=O)c3c(C)nc(N)nc3C2)cnc1N` (stereo not shown) [Compound 232, 2-amino-7-[2-(5-amino-6-methoxy-pyrazin-2-yl)-4-fluoro-phenyl]-4-methyl-7,8-dihydro-6H-quinazolin-5-one], the pIC50 is more than 6.00.
As to `Cc1nc(N)nc2c1C(=O)C[C@H](c1ccc(F)cc1-c1cccc(F)n1)C2` [Compound 213, (R)-2-amino-7-[4-fluoro-2-(6-fluoro-pyridin-2-yl)-phenyl]-4-methyl-7,8-dihydro-6H-quinazolin-5-one], the pIC50 was 5.00 to 6.00.
The same measure, in the same setting: the value for `COc1cncc(-c2cc(F)ccc2[C@@H]2CC(=O)c3c(C)nc(N)nc3C2)n1` [Compound 226, (S)-2-amino-7-[4-fluoro-2-(6-methoxy-pyrazin-2-yl)-phenyl]-4-methyl-7,8-dihydro-6H-quinazolin-5-one] was more than 6.00; that for `CCc1c[nH]nc1-n1ccnc1C1CC(=O)c2c(C)nc(N)nc2C1` (stereo not shown) [Compound 200, 2-amino-7-[1-(4-ethyl-1H-pyrazol-3-yl)-1H-imidazol-2-yl]-4-methyl-7,8-dihydro-6H-quinazolin-5-one] was more than 6.00; that for `Nc1ncc2c(n1)CC(c1ccccc1Br)CC2=O` (stereo not shown) [Compound 244, 2-amino-7-(2-bromo-phenyl)-7,8-dihydro-6H-quinazolin-5-one] was less than 5.00.
On the same count and under the same terms, in the case of `Cc1nc(N)nc2c1C(=O)C(NC(=O)c1ccccc1)C(c1ccccc1)C2` (stereo not shown) [Compound 241, N-(2-amino-4-methyl-5-oxo-7-phenyl-5,6,7,8-tetrahydro-quinazolin-6-yl)-benzamide] it was less than 5.00; in that of `C#Cc1cccc(-n2ccnc2C2CC(=O)c3c(C)nc(N)nc3C2)c1` (stereo not shown) [Compound 197, 2-amino-7-[1-(3-ethynyl-phenyl)-1H-imidazol-2-yl]-4-methyl-7,8-dihydro-6H-quinazolin-5-one], more than 6.00; in that of `COc1ccc(F)c(-n2ccnc2C2CC(=O)c3c(C)nc(N)nc3C2)c1` (stereo not shown) [Compound 196, 2-amino-7-[1-(2-fluoro-5-methoxy-phenyl)-1H-imidazol-2-yl]-4-methyl-7,8-dihydro-6H-quinazolin-5-one], 5.00 to 6.00.
On the same count and under the same terms, the value for `COc1ncccc1-c1ccc(F)cc1C1CC(=O)c2c(C)nc(N)nc2C1` (stereo not shown) [Compound 285, 2-amino-7-[5-fluoro-2-(2-methoxy-pyridin-3-yl)-phenyl]-4-methyl-7,8-dihydro-6H-quinazolin-5-one] was more than 6.00; that for `COc1ccccc1-c1scnc1C1CC(=O)c2c(C)nc(N)nc2C1` (stereo not shown) [Compound 301, 2-amino-7-[5-(2-methoxy-phenyl)-thiazol-4-yl]-4-methyl-7,8-dihydro-6H-quinazolin-5-one] was more than 6.00; that for `COc1nc(-c2cc(F)ccc2[C@@H]2CC(=O)c3c(C)nc(N)nc3C2)c(C)nc1N` [Compound 337, (S)-2-amino-7-[2-(5-amino-6-methoxy-3-methyl-pyrazin-2-yl)-4-fluoro-phenyl]-4-methyl-7,8-dihydro-6H-quinazolin-5-one] was more than 6.00.
